Laboratory results: patent US5324648A, “Substituted isocoumarins as serine protease inhibitors and anti-inflammatory agents” (Georgia Tech Research Corporation, priority 1992, dated 1994)

Tests used:
[1] = target: T1, C2a (Homo sapiens, UniProt P06681); assay: Inactivation rate of complement fragment C2a; assay type: biochemical; conditions: Table II; pH 7.5, 25° C; [I] 0.19 to 1.25 mM; read-out: kobs/[I]
T1 construct: active fragments C2a, Bb
Description: (§1) Inactivation rates of serine proteases by substituted isocoumarins were measured by the incubation method. An aliquot of inhibitor (25 or 50 μl) in Me2 SO was added to a buffered enzyme solution (0.01-2.3 μM) to initiate the inactivation. Aliquots (50 μl) were withdrawn at various intervals and the residual enzymatic activity was measured. Me2 SO concentration in the reaction mixture was 8-12% (v/v). 0.1 Hepes, 0.01M CaCl2, pH 7.5 buffer was utilized for trypsin and coagulation enzymes. 0.1M Hepes, 0.5M NaCl, pH 7.5 was utilized for other serine proteases. The inhibitor concentrations are shown in all the tables. Peptide thioesters or peptide nitroanilides with appropriate sequence were used as substrates for various serine proteases. All peptide thioester hydrolysis rates were measured with assay mixtures containing 4,4'-dithiodipyridine (ε324 =19800M^-1 cm^-1; Grasetti & Murray, Arch. Biochem. Biophys. 119, pp 41-49 (1967)). Peptide 4-nitroanilide nitroanilide hydrolysis was measured at 410 nm (ε410 =8800M^-1 cm^-1; Erlanger et al., Arch. Biochem. Biophys. 95, pp 271-278 (1961)). First order inactivation rate constant (kobs) were obtained from plots of ln (vt /vo) vs time, and the correlation coefficients were greater than 0.98.
^a Conditions were 0.1M Hepes, 0.5M NaCl, pH 7.5, 8-10% Me2 SO
and 25° C. Inactivation rates were measured by incubation method. […]

[2] = target: T2, human factor VIIa (Homo sapiens, UniProt P08709); assay: Inactivation rate of human factor VIIa; assay type: biochemical; conditions: Table I; pH 7.5, 25° C; [I] 5 to 44 μM; read-out: kobs/[I]
T2 construct: human factor VIIa
T2 sequence (P08709 213-466 limits assumed): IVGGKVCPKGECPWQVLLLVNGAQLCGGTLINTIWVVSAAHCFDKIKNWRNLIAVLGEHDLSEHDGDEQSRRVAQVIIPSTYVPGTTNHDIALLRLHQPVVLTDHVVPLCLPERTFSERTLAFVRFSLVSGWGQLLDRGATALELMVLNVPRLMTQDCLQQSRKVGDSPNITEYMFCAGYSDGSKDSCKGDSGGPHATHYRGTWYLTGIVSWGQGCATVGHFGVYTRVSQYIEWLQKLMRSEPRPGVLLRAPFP
T2 sequence (P08709 61-212 partner limits assumed): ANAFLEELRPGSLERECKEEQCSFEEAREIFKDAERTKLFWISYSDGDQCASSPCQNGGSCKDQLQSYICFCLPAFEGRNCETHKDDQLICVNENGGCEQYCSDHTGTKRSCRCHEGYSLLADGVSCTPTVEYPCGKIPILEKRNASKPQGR

[3] = Spontaneous hydrolysis in rabbit plasma; assay type: in vitro ADME; conditions: for half-life: rabbit plasma, read-out: t1/2 for spontaneous hydrolysis
[4] = Activated partial thromboplastin time (APTT), rabbit plasma
[5] = target: T3, human thrombin (Homo sapiens, UniProt P00734); assay: Inactivation rate of human thrombin; assay type: biochemical; conditions: Table VIII; pH 7.5, 25° C; [I] 1.2-54 μM; read-out: kobs/[I]
T3 construct: human thrombin
In short: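 Incubation method: enzyme (0.01-2.3 μM) mixed with inhibitor in 0.1M Hepes, 0.01M CaCl2, pH 7.5, 8% Me2SO, 25° C; residual activity sampled over time with peptide thioester or 4-nitroanilide substrates. kobs from ln(vt/vo) vs time plots.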

[6] = target: T4, human skin chymase (Homo sapiens, UniProt P23946); assay: Inactivation rate of human skin chymase; assay type: biochemical; conditions: Table V; pH 7.5, 25° C; [I] 0.41 to 0.53 mM; read-out: kobs/[I]
T4 construct: human skin chymase; from tissue; host or cells: human skin
T4 sequence (P23946 22-247): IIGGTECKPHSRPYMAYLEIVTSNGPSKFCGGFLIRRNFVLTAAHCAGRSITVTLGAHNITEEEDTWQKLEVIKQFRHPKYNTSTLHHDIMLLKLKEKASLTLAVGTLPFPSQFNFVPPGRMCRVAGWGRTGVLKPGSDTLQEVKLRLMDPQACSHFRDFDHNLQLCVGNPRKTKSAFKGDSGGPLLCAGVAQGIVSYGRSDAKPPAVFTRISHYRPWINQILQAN
Description: as §1
(§2) ^a Inactivation rates were measured at 0.1M Hepes, 0.5M NaCl, pH 7.5,
(§3) 8-12% Me2 SO and 25° C. by incubation method. An aliquot of […]

[7] = target: T5, human lung chymase (Homo sapiens, UniProt P23946); assay: Inactivation rate of human lung chymase; assay type: biochemical; conditions: Table V; pH 7.5, 25° C; [I] 0.38 mM; read-out: kobs/[I]
T5 construct: human lung chymase; from tissue; host or cells: human lung
T5 sequence (P23946 22-247): as above
Description: as §1, §2, §3

[8] = target: T6, rat mast cell protease II (Rattus norvegicus, UniProt P00770); assay: Inactivation rate of rat mast cell protease II; assay type: biochemical; conditions: Table V; pH 7.5, 25° C; [I] 0.007 to 0.013 mM; read-out: kobs/[I]
T6 construct: rat mast cell protease II; from tissue; host or cells: rat mast cells (by the enzyme's name only)
T6 sequence (P00770 21-247): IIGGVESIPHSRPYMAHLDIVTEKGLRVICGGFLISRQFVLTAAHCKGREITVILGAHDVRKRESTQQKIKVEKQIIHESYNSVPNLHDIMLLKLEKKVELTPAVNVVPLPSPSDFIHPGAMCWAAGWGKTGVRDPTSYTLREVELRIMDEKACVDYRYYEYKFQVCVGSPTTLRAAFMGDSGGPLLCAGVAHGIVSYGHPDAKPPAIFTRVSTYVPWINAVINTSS
Description: as §1, §2, §3

[9] = system: pig plasma; assay: Activated partial thromboplastin time (APTT), pig plasma; conditions: [I] 16 μM
[10] = system: pig plasma; assay: Prothrombin time (PT), pig plasma

T1 sequence (P06681 244-752 limits assumed): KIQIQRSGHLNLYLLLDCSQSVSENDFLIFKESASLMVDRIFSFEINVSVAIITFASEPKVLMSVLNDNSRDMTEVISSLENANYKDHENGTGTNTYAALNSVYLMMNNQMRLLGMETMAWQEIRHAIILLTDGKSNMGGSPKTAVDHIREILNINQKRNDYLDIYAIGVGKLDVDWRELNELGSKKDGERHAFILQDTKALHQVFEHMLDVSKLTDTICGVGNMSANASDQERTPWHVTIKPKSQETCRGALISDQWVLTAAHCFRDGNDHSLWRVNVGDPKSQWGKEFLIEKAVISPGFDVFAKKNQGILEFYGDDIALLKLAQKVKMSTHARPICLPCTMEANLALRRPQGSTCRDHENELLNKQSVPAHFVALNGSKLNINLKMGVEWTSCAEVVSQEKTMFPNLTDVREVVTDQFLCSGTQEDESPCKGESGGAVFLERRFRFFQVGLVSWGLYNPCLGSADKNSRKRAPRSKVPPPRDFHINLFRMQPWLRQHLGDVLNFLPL

Row | kinact/KI [5] | SMILES | kinact/KI [1] | kinact/KI [2] | half-life [3] | kinact/KI [6] | kinact/KI [8] | further results
1 | – | N=C(N)SCCOc1oc(=O)c2ccccc2c1Cl [3-(2-isothiureidoethoxy)-4-chloroisocoumarin] | 1.4 M⁻¹ s⁻¹ | – | – | – | – | –
2 | – | N=C(N)SCCCOc1oc(=O)c2ccccc2c1Cl [3-(3-isothiureidopropoxy)-4-chloroisocoumarin] | 0.8 M⁻¹ s⁻¹ | 450 M⁻¹ s⁻¹ | – | – | – | –
3 | 760 M⁻¹ s⁻¹ | N=C(N)SCCCOc1oc(=O)c2cc(N)ccc2c1Cl [7-amino-4-chloro-3-(3-isothiureidopropoxy)isocoumarin] | – | 430 M⁻¹ s⁻¹ | 2.33 h | – | – | stability in rabbit plasma (in words) [3]: fairly stable; APTT ([4]; [I] 33 μM): 68.6 s
4 | – | CCOc1oc(=O)c2cc(NC(=N)N)ccc2c1Cl [7-guanidino-3-ethoxy-4-chloroisocoumarin, 7-guanidino-4-chloro-3-ethoxyisocoumarin] | – | 2200 M⁻¹ s⁻¹ | 0.07 h | 33 M⁻¹ s⁻¹ | 1100 M⁻¹ s⁻¹ | APTT ([4]; [I] 31 μM): 60.5 s; kinact/KI [7]: 540 M⁻¹ s⁻¹
5 | – | N=C(N)Nc1ccc2c(Cl)c(OCCc3ccccc3)oc(=O)c2c1 [7-guanidino-4-chloro-3-(2-phenylethoxy)isocoumarin] | – | – | – | 22 M⁻¹ s⁻¹ | 4100 M⁻¹ s⁻¹ | –
6 | 22400 M⁻¹ s⁻¹ | N=C(N)SCCOc1oc(=O)c2cc(NC(=O)Nc3ccccc3)ccc2c1Cl [PhNHCONH-CiTEtOIC, 7-(phenylcarbamoylamino)-4-chloro-3-(2-isothiureidoethoxy)isocoumarin] | – | – | – | – | – | APTT [9]: > 120 s; PT ([10]; [I] 16 μM): 28.5 s; PT ([10]; [I] 32 μM): 58.3 s
